Source: BindingDB's records for patent US10071965 (The State University of New York, 2018)

Biological target: T1, Enoyl-[acyl-carrier-protein] reductase [NADPH] FabI (Staphylococcus aureus (strain MRSA252), UniProt Q6GI75)
T1 sequence (Q6GI75 whole entry): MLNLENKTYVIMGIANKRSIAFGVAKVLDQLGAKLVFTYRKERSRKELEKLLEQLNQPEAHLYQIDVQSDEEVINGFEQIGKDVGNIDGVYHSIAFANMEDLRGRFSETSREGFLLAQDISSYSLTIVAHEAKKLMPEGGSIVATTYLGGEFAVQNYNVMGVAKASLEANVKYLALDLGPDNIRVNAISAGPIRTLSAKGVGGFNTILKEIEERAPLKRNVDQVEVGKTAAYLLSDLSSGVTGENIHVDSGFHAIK
Assay: Tight-binding assay
Details: pH 7.5

Cc1ccc(Oc2ccccc2)c(O)c1 [US10071965, Compound PT53] gave a Ki of 494 nM.
